Holding throughout (experiment): Cryopreservation success rate after dormancy induction in sugar-supplemented medium
The subject of one experiment is L. sp. Branson. The experiment is classed as in vivo. As to conditions: for Cryopreservation success, in words: summary of Tables 6 and 7. As to the method: (§1) Lemna minor duckweed plants were cultured on Schenk and Hildebrandt media with 20 mg/ml sucrose at an aerial temperature of between 21° C. and 30° C. and light levels ranging from 200 μM·M^−2·sec^−1 to 450 μM·M^−2·sec^−1 for 1 day up to 1 year. Three frond colonies (each frond colony comprised one or more daughter fronds attached to the mother frond) were aseptically transferred into a 2.0-mL cryovial containing a 900 μL solution of Schenk and Hildebrandt media, […] step. The frond colonies were incubated in this sugar solution for 21-30 days. Each 24-hour photoperiod was comprised of fluctuations in temperature and light levels. Specifically, the daytime hours consisted of culturing the duckweed frond colony at an aerial temperature of 10° C. with a light level of about 25 μM·M^−2·sec^−1 to about 50 μM·M^−2·sec^−1 for a duration of 3 hours, followed by an aerial temperature of 15° C. at a light level of about 25 μM·M^−2·sec^−1 to about 75 μM·M^−2·sec^−1 for a duration of 6 hours, and an aerial temperature of 10° C. with a light level of about 25 μM^−2·sec^−1 to about 50 μM·M^−2·sec^−1 for a duration of 3 hours. During the nighttime hours of the 24-hour photoperiod, the duckweed frond colonies were cultured at an aerial temperature of 4° C. in the absence of light for a duration of 12 hours.
(§2) The duckweed frond colonies were dehydrated in a laminar flow hood in 900 μL of a cryoprotective solution, comprising 1.92 M DMSO, […], 3.26 M glycerol, and 0.4 M sucrose at pH 5.8. The cryovials were incubated in this solution at 4° C. for 30 minutes to 2 hours in the absence of light. Following the incubation, the cryoprotective solution was removed and replaced with 900 μL of fresh cryoprotective solution.
(§3) The duckweed frond colonies were frozen in a slow rate freezer according to the following freezing protocol. The cryovials containing the duckweed frond colonies were held at 4° C. and the temperature was lowered to −4° C. at 1° C. per minute, to −40° C. at 25° C. per minute, and then raised to −12° C. at 10° C. per minute. The temperature was again lowered to −40° C. at 1° C. per minute, to −90° C. at 10° C. per minute, and then lowered to −150° C. at 10° C. per minute. Once frozen, the vials containing the frond colonies were transferred to the vapor phase of liquid nitrogen for storage.
(§4) After up to 17 months in storage, the frozen duckweed frond colonies were thawed and recovered as follows. The vials containing the frozen duckweed frond colonies were transferred from the liquid nitrogen storage tank to a laminar flow hood and were thawed at room temperature for approximately ten minutes. The cryoprotective solution was removed and replaced with 900 μL of Schenk and Hildebrandt medium, supplemented with 1.2 M sucrose, followed by a ten minute incubation at room temperature. The 1.2 M sucrose was subsequently diluted by a series of five dilutions whereby 450 μL of the 1.2 M sucrose solution was removed and replaced with 450 μL of Schenk and Hildebrandt medium supplemented with 20 mg/ml sucrose. Following the serial dilutions, the frond colonies were transferred to a petri dish with Schenk and Hildebrandt medium, supplemented with 10 mg/ml sucrose and 1% (weight/volume) agar. The duckweed frond colonies were cultured at an aerial temperature of between 21° C. and 30° C. with light levels ranging from about 20 μM·M^−2·sec^−1 to about 100 μM·M^−2·sec^−1 for 7-14 days prior to calculating the success rate of the cryopreservation procedure.
(§5) The cryopreservation success rate was calculated by the total number of visible daughter fronds (or daughter fronds with viable tissue) to survive the freezing process and successfully reproduce new daughter fronds as a percentage of the total number of visible daughter fronds that were frozen. Viability of tissue or of daughter fronds was assessed by the presence of green tissue and the ability of these fronds or frond tissues to reproduce and generate new daughter fronds. […]

In the next experiment the test system is BAP01-B2-230 line. Format: in vivo, Lemna minor. As to conditions: sugars at two concentrations: 90 mg/ml (1X) and 270 mg/ml (3X). As to the method:
(§6) Lemna minor duckweed plants were cultured on Schenk and Hildebrandt media with 20 mg/ml sucrose at an aerial temperature of between 21° C. and 30° C. and light levels ranging from […] for 1 day up to 1 year. Three frond colonies (each frond colony comprised one or more daughter fronds attached to the mother frond) were aseptically transferred into a 2.0-mL cryovial containing a 900 μL solution of Schenk and Hildebrandt media, supplemented with 15 mg/ml of each D-trehalose dihydrate, sucrose, D-sorbitol, D-raffinose pentahydrate, D-glucose, and D-mannitol for the dormancy-induction step. The frond colonies were incubated in this sugar solution for 21-30 days. Each 24-hour photoperiod was comprised of fluctuations in temperature and light levels. Specifically, the daytime hours consisted of culturing the duckweed frond colony at an aerial temperature of 10° C. with a light level of about 25 μM·M^−2·sec^−1 to about 50 μM·M^−2·sec^−1 for a duration of 3 hours, followed by an aerial temperature of 15° C. at a light level of about 25 μM·M^−2·sec^−1 to about 75 μM·M^−2·sec^−1 for a duration of 6 hours, and an aerial temperature of 10° C. with a light level of about 25 μM^−2·sec^−1 to about 50 μM·M^−2·sec^−1 for a duration of 3 hours. During the nighttime hours of the 24-hour photoperiod, the duckweed frond colonies were cultured at an aerial temperature of 4° C. in the absence of light for a duration of 12 hours.
as §2, §3, §4
(§7) The cryopreservation success rate was calculated by the total number of visible daughter fronds (or daughter fronds with viable tissue) to survive the freezing process and successfully reproduce new daughter fronds as a percentage of the total number of visible daughter fronds that were frozen. […]

Experiment [1] relates to L. minor. The experiment is classed as in vivo, Lemna minor. As to conditions: for Cryopreservation success rate: single sugars 90 mg/ml unless the label says 20 mg/ml, six sugar combo 15 mg/ml each; for Cryopreservation success, in words: summary of Tables 6 and 7. As to the method:
as §6, §2, §3, §4, §7

For another experiment, the system named is Sp. polyrrhiza. Format: in vivo, Spirodela polyrrhiza. As to conditions: for Cryopreservation success rate: single sugars 90 mg/ml unless the label says 20 mg/ml, six sugar combo 15 mg/ml each; for Cryopreservation success, in words: summary of Tables 6 and 7.
In a further experiment the test system is L. yungensis. The experiment is classed as in vivo, Lemna yungensis. The conditions noted are these: for Cryopreservation success rate: single sugars 90 mg/ml unless the label says 20 mg/ml, six sugar combo 15 mg/ml each; for Cryopreservation success, number of surviving fronds: sugar 90 mg/ml; for Cryopreservation success, in words: summary of Tables 6 and 7.

The test system of another experiment is IFN61-B2-101 line. Format: in vivo, Lemna minor. As to conditions: sugars at two concentrations: 90 mg/ml (1X) and 270 mg/ml (3X). As to the method:
as §1, §2, §3, §4, §5

Experiment [2] relates to L. minor. Format: in vivo, Lemna minor. The conditions noted are these: sugars at two concentrations: 90 mg/ml (1X) and 270 mg/ml (3X).
Setting [3] is: first set of experiments, single sugars 90 mg/ml unless the label says 20 mg/ml, six sugar combo 15 mg/ml each, in Schenk and Hildebrandt media during dormancy induction.
Where [4] appears, read: second set of experiments, single sugars 90 mg/ml unless the label says 20 mg/ml, six sugar combo 15 mg/ml each.

For the compound `O=C[C@H](O)[C@@H](O)[C@H](O)[C@H](O)CO` [Glucose, glucose], the Cryopreservation success rate was 88.5% (23/26) in the experiment with L. sp. Branson (setting [3]); 53.3% (8/15) in the experiment on L. sp. Branson (setting [4]); 0% (0/11) in the experiment with L. sp. Branson (sugars at two concentrations: 90 mg/ml (1X) and 270 mg/ml (3X), listed as Glucose 1X); 0% (0/15) in the experiment with L. sp. Branson (sugars at two concentrations: 90 mg/ml (1X) and 270 mg/ml (3X), listed as Glucose 3X); 0% (0/14) with BAP01-B2-230 line (listed as Glucose 1X); 0% (0/13) with BAP01-B2-230 line (listed as Glucose 3X). Besides, the Cryopreservation success rate in the experiment on L. minor [1] (first set of experiments) was 5.9% (1/17); in the experiment on L. minor [1] (second set of experiments), 53.9% (7/13); in the experiment with Sp. polyrrhiza (first set of experiments), 0% (0/4); in the experiment on Sp. polyrrhiza (second set of experiments), 0% (0/4); in the experiment with L. yungensis (first set of experiments), 0%; with L. yungensis (second set of experiments), 0%. Moreover, the Cryopreservation success rate in the experiment with IFN61-B2-101 line (listed as Glucose 1X) was 5.3%; in the experiment on IFN61-B2-101 line (listed as Glucose 3X), 0%; with L. minor [2] (listed as Glucose 1X), 0% (0/12); in the experiment with L. minor [2] (listed as Glucose 3X), 0% (0/16). In addition, the “Cryopreservation success, in words” value in the experiment on L. minor [1] is given as “lower cryopreservation success rates”.

Consider `OC[C@@H](O)[C@@H](O)[C@H](O)[C@H](O)CO` [Mannitol, mannitol], for which the Cryopreservation success rate in the experiment on L. sp. Branson (setting [3]) is 33.3% (6/18); in the experiment on L. sp. Branson (setting [4]) it was 28.6% (4/14); in the experiment with L. minor [1] (first set of experiments) it was 0% (0/8); in the experiment with L. minor [1] (second set of experiments), 0% (0/14); in the experiment with Sp. polyrrhiza (first set of experiments), 50% (4/8); in the experiment on Sp. polyrrhiza (second set of experiments), 57.1% (4/7). Also, the “Cryopreservation success, in words” value in the experiment on L. sp. Branson is “low relative to the other sugars that were tested”; with L. minor [1], “ineffective”; in the experiment on Sp. polyrrhiza, “successfully cryopreserved”; in the experiment on L. yungensis, “successfully cryopreserved”. In addition, the entries for the “Cryopreservation success, number of surviving fronds” value in the experiment on L. yungensis (first set of experiments) and in the experiment on L. yungensis (second set of experiments) were 1 frond and 2 fronds, respectively.

For `OC[C@H]1O[C@H](OC[C@H]2O[C@H](O[C@]3(CO)O[C@H](CO)[C@@H](O)[C@@H]3O)[C@H](O)[C@@H](O)[C@@H]2O)[C@H](O)[C@@H](O)[C@H]1O` [Raffinose, raffinose], the Cryopreservation success rate with L. sp. Branson (setting [3]) is recorded as 100% (23/23); with L. sp. Branson (setting [4]), 100% (17/17); in the experiment on L. sp. Branson (sugars at two concentrations: 90 mg/ml (1X) and 270 mg/ml (3X), listed as Raffinose 1X), 100% (20/20); in the experiment on L. sp. Branson (sugars at two concentrations: 90 mg/ml (1X) and 270 mg/ml (3X), listed as Raffinose 3X) it was 0% (0/12); in the experiment with BAP01-B2-230 line (listed as Raffinose 1X), 96.2% (25/26); with BAP01-B2-230 line (listed as Raffinose 3X), 0% (0/14). In addition, the Cryopreservation success rate is on record as 100% (16/16) in the experiment on L. minor [1] (first set of experiments); 92.9% (13/14) in the experiment with L. minor [1] (second set of experiments); 0% (0/6) in the experiment with Sp. polyrrhiza (first set of experiments); 0% (0/12) in the experiment with Sp. polyrrhiza (second set of experiments); 0% in the experiment with L. yungensis (first set of experiments); 0% in the experiment on L. yungensis (second set of experiments). Moreover, the Cryopreservation success rate in the experiment on IFN61-B2-101 line (listed as Raffinose 1X) is recorded as 100%; with IFN61-B2-101 line (listed as Raffinose 3X), 26.7%; in the experiment on L. minor [2] (listed as Raffinose 1X), 96% (24/25); in the experiment on L. minor [2] (listed as Raffinose 3X) it was 0% (0/19). In the experiment with L. minor [1], the “Cryopreservation success, in words” value is on record as “prefers”.

Take `OC[C@@H](O)[C@@H](O)[C@H](O)[C@@H](O)CO` [Sorbitol, sorbitol]: the Cryopreservation success rate with L. sp. Branson (setting [3]) is reported as 27.3% (6/22); in the experiment on L. sp. Branson (setting [4]) it was 16.7% (2/12); in the experiment on L. minor [1] (first set of experiments), 0% (0/13); with L. minor [1] (second set of experiments) it was 0% (0/4); with Sp. polyrrhiza (first set of experiments), 12.5% (1/8); with Sp. polyrrhiza (second set of experiments) it was 25% (1/4). The “Cryopreservation success, in words” value in the experiment with L. sp. Branson was “low relative to the other sugars that were tested”; with L. minor [1], “ineffective”; in the experiment with Sp. polyrrhiza, “successfully cryopreserved”; in the experiment on L. yungensis, “successfully cryopreserved”. Also, the “Cryopreservation success, number of surviving fronds” value with L. yungensis (first set of experiments) and in the experiment with L. yungensis (second set of experiments) was 1 frond in each case.

In the case of `OC[C@H]1O[C@H](O[C@H]2O[C@H](CO)[C@@H](O)[C@H](O)[C@H]2O)[C@H](O)[C@@H](O)[C@@H]1O` [Trehalose, trehalose], the Cryopreservation success rate with L. sp. Branson (setting [3]) is 100% (20/20); with L. sp. Branson (setting [4]), 100% (16/16); in the experiment on L. sp. Branson (sugars at two concentrations: 90 mg/ml (1X) and 270 mg/ml (3X), listed as Trehalose 1X), 100% (17/17); with L. sp. Branson (sugars at two concentrations: 90 mg/ml (1X) and 270 mg/ml (3X), listed as Trehalose 3X), 0% (0/17); in the experiment on BAP01-B2-230 line (listed as Trehalose 1X) it was 85% (17/20); in the experiment on BAP01-B2-230 line (listed as Trehalose 3X) it was 0% (0/12). Also, the Cryopreservation success rate is 100% (17/17) in the experiment on L. minor [1] (first set of experiments); 85.7% (12/14) with L. minor [1] (second set of experiments); 0% (0/4) in the experiment with Sp. polyrrhiza (first set of experiments); 0% (0/15) in the experiment on Sp. polyrrhiza (second set of experiments); 0% in the experiment with L. yungensis (first set of experiments); 0% in the experiment on L. yungensis (second set of experiments). Besides, the Cryopreservation success rate is on record as 93.8% in the experiment on IFN61-B2-101 line (listed as Trehalose 1X), 7.1% with IFN61-B2-101 line (listed as Trehalose 3X), 100% (15/15) in the experiment with L. minor [2] (listed as Trehalose 1X) and 0% (0/12) with L. minor [2] (listed as Trehalose 3X). Further, the “Cryopreservation success, in words” value in the experiment on L. minor [1] is given as “prefers”.
